The values that follow come from patent publication US10150737B2, “Compounds for controlling arthropods” (priority 2013, dated 2018).

In one data set the test system is Lucilia cuprina. Description: Lucilia cuprina test. In kind it is in vivo. Conditions: application rate 100 ppm; L1 larvae; after 2 days. Summed up: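 About 20 L1 larvae placed on minced horsemeat treated with compound, formulated in DMSO and diluted with water to test concentration. Kill in % scored after 2 days (100% = all larvae dead, 0% = none).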
Another data set relates to Phaedon cochleariae. Description: Phaedon cochleariae - spray test. In kind it is in vivo. Particulars: application rate 100 g/ha; larvae on Chinese cabbage leaf discs; after 7 days. The essentials: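 Chinese cabbage leaf discs sprayed with compound formulated in acetone/DMF and water containing 1000 ppm emulsifier; once dry, infested with mustard beetle larvae. Efficacy (% larvae killed) scored after 7 days.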

Data set [1] has as its system Boophilus microplus Parkhurst strain, SP-resistant. In words: Boophilus microplus - dip test. In kind it is in vivo. Conditions: application rate 100 ppm; dip of engorged adult female ticks; after 7 days. How it is done:
Test animals: cattle ticks (Boophilus microplus) Parkhurst strain, SP-resistant
Solvent: dimethyl sulphoxide
10 mg of active ingredient are dissolved in 0.5 ml of dimethyl sulphoxide. For the purpose of producing a suitable formulation, the active ingredient solution is diluted with water to the concentration desired in each case.
This active ingredient formulation is pipetted into tubes. 8-10 adult engorged female cattle ticks (Boophilus microplus) are transferred into a further tube with holes. The tube is immersed into the active ingredient formulation, and all the ticks are completely wetted. After the liquid has run out, the ticks are transferred on filter discs into plastic dishes and stored in a climate-controlled room.
Efficacy is assessed after 7 days by laying of fertile eggs. Eggs which are not visibly fertile are stored in a climate-controlled cabinet until the larvae hatch after about 42 days. An efficacy of 100% means that none of the ticks has laid any fertile eggs; 0% means that all the eggs are fertile.

A further data set has as its system Spodoptera frugiperda. Description: Spodoptera frugiperda - spray test. In kind it is in vivo. Conditions: application rate 100 g/ha; caterpillars on maize leaf discs; after 7 days. The essentials: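 Maize leaf discs sprayed with compound formulated in acetone/DMF and diluted in water containing 1000 ppm alkylaryl polyglycol ether emulsifier, then infested with armyworm caterpillars after drying. Efficacy scored after 7 days as % caterpillars killed (100% all, 0% none).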

The test system of the next data set is Myzus persicae. In words: Myzus persicae - spray test. Type of data set: in vivo. Conditions: application rate 100 g/ha; Chinese cabbage leaf discs; after 6 days. Summed up: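 Chinese cabbage leaf discs carrying all stages of Myzus persicae sprayed with compound in acetone/DMF diluted in water with 1000 ppm emulsifier. Efficacy (% aphids killed) assessed after 6 days.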

Data set [2] in a line: logP determination by HPLC on a reversed-phase column (C18). In kind it is physicochemical. Particulars: for log P: HPLC-MS; for logP^a): HPLC-MS method a); for logP: HPLC, C18 reversed phase, acetonitrile/water with formic acid, EEC Directive 79/831 Annex V.A8.
The next data set relates to Boophilus microplus. Description: Boophilus microplus - injection test. Type of data set: in vivo. Particulars: application rate 20 μg/animal; injection into engorged adult female ticks; after 7 days. The essentials:
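Active ingredient in DMSO, 1 μl injected into the abdomen of 5 engorged adult female ticks, then held in a climate-controlled room. Efficacy scored after 7 days from laying of fertile eggs, with non-fertile-looking eggs kept about 42 days for larval hatch; 100% means no fertile eggs.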

The subject of another data set is Tetranychus urticae. Description: Tetranychus urticae - spray test, OP-resistant. In kind it is in vivo. Conditions: application rate 100 g/ha; bean leaf discs; after 6 days. Summed up: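 Compound dissolved in acetone/DMF, diluted with water containing 1000 ppm alkylaryl polyglycol ether emulsifier to test concentrations. Bean leaf discs infested with all stages of spider mites were sprayed; % kill determined after 6 days (100% = all mites dead, 0% = none).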

The test system of another data set is Rhipicephalus sanguineus. In words: Rhipicephalus sanguineus - in vitro contact tests with adult brown dog ticks. Type of data set: in vivo. Particulars: application rate 5 μg/cm2; after 48 h; ticks dead or moribund. As to the method:
For the coating of the test tubes, 9 mg of active ingredient are first dissolved in 1 ml of acetone p.a. and then diluted to the desired concentration with acetone p.a. 250 μl of the solution are distributed homogeneously on the inner walls and base of a 25 ml test tube by turning and rocking on an orbital shaker (rocking rotation at 30 rpm for 2 h). With 900 ppm active ingredient solution and internal surface 44.7 cm^2, given homogeneous distribution, an area-based dose of 5 μg/cm^2 is achieved.
After the solvent has evaporated off, the tubes are populated with 5-10 adult dog ticks (Rhipicephalus sanguineus), sealed with a perforated plastic lid and incubated in a horizontal position in the dark at room temperature and ambient humidity. After 48 h, efficacy is determined. To this end, the ticks are knocked to the floor of the tube and incubated on a hotplate at 45-50° C. for not more than 5 min. Ticks which remain motionless on the floor or move in such an uncoordinated manner that they are unable to deliberately avoid the heat by climbing upwards are considered to be dead or moribund.
An efficacy of 100% means that all the ticks were dead or moribund. 0% efficacy means that none of the ticks had been harmed.

Data set [3] concerns Ctenocephalides felis. In words: Ctenocephalides felis - oral test. In kind it is in vivo. Particulars: application rate 100 ppm in citrated cattle blood; after 2 days. Summed up:
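Compound in DMSO diluted into citrated cattle blood, fed through a parafilm membrane to about 20 unfed adult cat fleas. Kill in % scored after 2 days (100% = all dead).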

A further data set concerns Musca domestica. Description: Musca domestica test. In kind it is in vivo. Particulars: application rate 100 ppm; adult houseflies; after 2 days. Summed up: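 Feeding exposure: adult Musca domestica, 10 per vessel, given a sponge with sugar solution and test formulation at the desired concentration; % mortality determined on day 2.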
For data set [4], the system named is Ctenocephalides felis. In words: Ctenocephalides felis - in vitro contact tests with adult cat fleas. Conditions: application rate 5 μg/cm2 (=500 g/ha); after 48 h; fleas dead or moribund. In kind it is in vivo. Summed up: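 Tubes coated with compound in acetone (250 μl of 900 ppm solution gives 5 μg/cm^2 on 44.7 cm^2), solvent evaporated, then 5–10 adult fleas added and kept horizontal at room temperature and ambient humidity. After 48 h, dead or moribund (motionless/uncoordinated) fleas scored as % efficacy.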

Setting [5] is: reversed-phase column (C18), Table I-T3.

As for `Cc1cc(C(F)(C(F)(F)F)C(F)(F)F)cc(I)c1-n1cc(-c2ccc(Cl)c(C(=O)NC3(C#N)CC3)c2)cn1` [I-T3-176], the “efficacy (kill)” value in the data set on Lucilia cuprina, with Ctenocephalides felis [3] and in the data set with Musca domestica was 100% in each case. In addition, the efficacy with Phaedon cochleariae, with Spodoptera frugiperda, in the data set on Myzus persicae, in the data set with Tetranychus urticae, with Rhipicephalus sanguineus and in the data set with Ctenocephalides felis [4] was 100% throughout. In addition, the “efficacy (laying of fertile eggs)” value (in [1]; in the data set with Boophilus microplus) was 100% throughout. Moreover, in data set [2] (setting [5]), the “log P” value came out at 4.4.
Consider `N#CC1(NC(=O)c2cc(-c3cnn(-c4c(Br)cc(C(F)(C(F)(F)F)C(F)(F)F)cc4C(F)(F)F)c3)cnc2Cl)CC1` [I-T3-165], for which the “efficacy (kill)” value in the data set on Lucilia cuprina, in the data set with Ctenocephalides felis [3] and in the data set with Musca domestica was 100% each time. The efficacy in the data set on Phaedon cochleariae, in the data set on Spodoptera frugiperda, with Myzus persicae, in the data set with Tetranychus urticae, with Rhipicephalus sanguineus and in the data set on Ctenocephalides felis [4] was 100% each time. Moreover, the “efficacy (laying of fertile eggs)” value (in data set [1]; in the data set with Boophilus microplus) was 100% each time. Moreover, the “log P” value in [2] (setting [5]) turned out to be 3.9.
Turning to `CCc1cc(C(F)(F)C(F)(F)F)cc(C)c1-n1cc(-c2ccc(Cl)c(C(=O)NC3(C#N)CC3)c2)cn1` [I-T3-80], the “efficacy (kill)” value with Lucilia cuprina, in the data set on Ctenocephalides felis [3] and in the data set with Musca domestica was 100% throughout. The efficacy in the data set with Phaedon cochleariae is recorded as 100%; in the data set with Spodoptera frugiperda, 100%; in the data set with Myzus persicae it was 90%; with Tetranychus urticae, 100%; with Rhipicephalus sanguineus it was 80%; in the data set on Ctenocephalides felis [4], 100%. Besides, the “efficacy (laying of fertile eggs)” value in data set [1] is given as 80%; with Boophilus microplus, 100%. Besides, the “logP^a)” value in data set [2] and in data set [2] (setting [5]) was 4.2 each time.
Regarding `Cc1cc(C(F)(C(F)(F)F)C(F)(F)F)cc(C(F)(F)F)c1-c1cc(-c2cnc(Cl)c(C(=O)NC3(C#N)CC3)c2)on1` [I-T22-4], the efficacy in the data set on Phaedon cochleariae, with Tetranychus urticae and with Rhipicephalus sanguineus was 100% throughout. The “efficacy (laying of fertile eggs)” value (in data set [1]; with Boophilus microplus) was 100% in each case. This molecule also had a logP in data set [2] of 4.4. In addition, the “efficacy (kill)” value in the data set with Ctenocephalides felis [3] is reported as 100%.
For the molecule `O=C(NC1CC1)c1cc(-c2cnn(-c3c(Br)cc(C(F)(C(F)(F)F)C(F)(F)F)cc3C(F)(F)F)c2)cnc1Cl` [I-T3-160], the “efficacy (kill)” value in the data set on Lucilia cuprina, in the data set with Ctenocephalides felis [3] and with Musca domestica was 100% each time. Moreover, the efficacy is listed as 100% in the data set on Phaedon cochleariae; 100% with Spodoptera frugiperda; 90% in the data set on Myzus persicae; 100% with Tetranychus urticae; 100% with Rhipicephalus sanguineus; 100% in the data set with Ctenocephalides felis [4]. Further, the “efficacy (laying of fertile eggs)” value (in [1]; in the data set on Boophilus microplus) was 100% in each case. In data set [2] (reversed-phase column (C18)), the “logP^a)” value is 4.0. Also, in [2] (setting [5]), the log partition coefficient (log P) came to 4.0.
With `Cc1cc(C(F)(C(F)(F)F)C(F)(F)F)cc(I)c1-n1cc(-c2ccc(Cl)c(C(=O)NC3CC3)c2)cn1` [I-T3-175], the “efficacy (kill)” value in the data set on Lucilia cuprina, with Ctenocephalides felis [3] and with Musca domestica was 100% throughout. Also, the efficacy in the data set on Phaedon cochleariae, in the data set on Spodoptera frugiperda, in the data set with Myzus persicae, with Tetranychus urticae, in the data set with Rhipicephalus sanguineus and in the data set with Ctenocephalides felis [4] was 100% each time. Besides, the “efficacy (laying of fertile eggs)” value (in data set [1]; in the data set on Boophilus microplus) was 100% throughout. Besides, the “log P” value in [2] (setting [5]) is given as 4.5.
For `Cc1cc(C(F)(C(F)(F)F)C(F)(F)F)cc(C(F)(F)F)c1-c1cc(-c2ccc(Cl)c(C(=O)NC3CC3)c2)on1` [I-T22-5], the “efficacy (kill)” value with Lucilia cuprina, with Ctenocephalides felis [3] and with Musca domestica was 100% throughout. Moreover, the efficacy in the data set with Phaedon cochleariae, in the data set with Spodoptera frugiperda, in the data set on Myzus persicae, with Tetranychus urticae, with Rhipicephalus sanguineus and with Ctenocephalides felis [4] was 100% throughout. In addition, the “efficacy (laying of fertile eggs)” value (in [1]; in the data set with Boophilus microplus) was 100% throughout. In [2], this molecule showed a lipophilicity (logP) of 4.9.
`Cc1cc(C(F)(C(F)(F)F)C(F)(F)F)cc(C(F)(F)F)c1-c1cc(-c2cnc(Cl)c(C(=O)NC3CC3)c2)on1` [I-T22-6]: the entries for the “efficacy (kill)” value in the data set on Lucilia cuprina, in the data set on Ctenocephalides felis [3] and with Musca domestica were 100%, 95% and 90%, respectively. In addition, the efficacy in the data set on Phaedon cochleariae and in the data set on Rhipicephalus sanguineus was 100% in each case. Further, the “efficacy (laying of fertile eggs)” value (in data set [1]; with Boophilus microplus) was 100% throughout. This molecule also returned a logP in data set [2] of 4.5.
As to `Cc1cc(C(F)(C(F)(F)F)C(F)(F)F)cc(C(F)(F)F)c1-c1cc(-c2ccc(Cl)c(C(=O)NC3(C#N)CC3)c2)on1` [I-T22-7], the “efficacy (kill)” value in the data set on Lucilia cuprina, in the data set with Ctenocephalides felis [3] and with Musca domestica was 100% in each case. In addition, the efficacy in the data set with Phaedon cochleariae, in the data set with Spodoptera frugiperda, in the data set on Myzus persicae, in the data set with Tetranychus urticae, in the data set on Rhipicephalus sanguineus and in the data set with Ctenocephalides felis [4] was 100% in each case. The “efficacy (laying of fertile eggs)” value (in data set [1]; in the data set with Boophilus microplus) was 100% throughout. The molecule also had a logP in data set [2] of 4.7.
